Data reported in BigSolDB 2.1.

O=C(O)c1cc([N+](=O)[O-])cc([N+](=O)[O-])c1
solubility (mole fraction)
Details | 283.15 K | 288.15 K | 293.15 K | 298.15 K | 303.15 K | 308.15 K | 313.15 K | 318.15 K | 323.15 K
in acetonitrile | 0.00815 | 0.00958 | 0.011 | 0.0129 | 0.0148 | 0.0162 | 0.019 | 0.0218 | 0.0236
in ethanol | 0.0264 | 0.0306 | 0.0346 | 0.0396 | 0.0456 | 0.0524 | 0.0593 | 0.07 | 0.078
in ethyl acetate | 0.0349 | 0.0373 | 0.0399 | 0.0426 | 0.0458 | 0.0495 | 0.0533 | 0.0574 | 0.0627
in isobutanol | 0.00648 | 0.00862 | 0.0129 | 0.0171 | 0.0223 | 0.0265 | 0.031 | 0.0376 | 0.0466
in isopropanol | 0.014 | 0.0167 | 0.0194 | 0.0255 | 0.0315 | 0.0381 | 0.0459 | 0.0548 | 0.0661
in methanol | 0.0321 | 0.0399 | 0.0454 | 0.0502 | 0.059 | 0.0669 | 0.0767 | 0.0843 | 0.0943
in methyl acetate | 0.0378 | 0.0413 | 0.0456 | 0.0498 | 0.054 | 0.0582 | 0.0623 | 0.0664 | 0.0713
in n-butanol | 0.0138 | 0.0163 | 0.0214 | 0.0273 | 0.0329 | 0.0386 | 0.0458 | 0.0537 | 0.0622
in n-butyl acetate | 0.0257 | 0.0262 | 0.0281 | 0.0327 | 0.0341 | 0.04 | 0.0451 | 0.0504 | 0.0562
in n-pentanol | 0.0153 | 0.0173 | 0.0223 | 0.0273 | 0.0321 | 0.0379 | 0.0456 | 0.0531 | 0.0604
in n-propanol | 0.0173 | 0.019 | 0.0224 | 0.0274 | 0.0332 | 0.0397 | 0.0457 | 0.0549 | 0.065
in n-propyl acetate | 0.0281 | 0.0296 | 0.0318 | 0.0354 | 0.04 | 0.0443 | 0.0494 | 0.0548 | 0.0609
in sec-butanol | 0.0139 | 0.0159 | 0.0201 | 0.0263 | 0.0324 | 0.0414 | 0.0503 | 0.0628 | 0.0777
